{
  "source": "patent US20110262561A1",
  "about": "“Protoilludance Norsesquiterpenoid Esters and Uses Thereof” (NATIONAL RESEARCH INSTITUTE OF CHINESE MEDICINE, priority 2010, published 2011)",
  "key": {"[1]": {"system": "endothelial cells (human endothelial-like cells, Eahy926)", "assay": "MTT cell viability of endothelial cells (ECs)", "format": "cell-based", "method": "(§1) The endothelial cells (human endothelial-like cells, Eahy926) and 4 cancer cell lines (MCF-7, H460, HT-29, and CEM) were derived from the American Type Culture Collection (ATCC) and were maintained in DMEM or RPMI medium (Life Technologies) supplemented with 2 mM L-glutamine and 10% heat-inactivated fetal bovine serum (FBS) (Life Technologies) under standard culture conditions. The cell viability and cell number were determined by the Trypan Blue dye-exclusion method.\n(§2) Anti-angiogenic effects of CH-205 compounds were estimated by their inhibition on the growth of endothelial cells. The toxicity of CH-205 compounds to endothelial cells was estimated using MTT (3-(4,5-dimethy;thiazol-2-yl)-2,5-diphenyltetrazolium bromide, a tetrazole) assay. MTT assay is a standard colorimetric assay (an assay which measures changes in color) for measuring the activity of enzymes that reduce yellow MTT to formazan, giving a purple color. It is also used to determine cytotoxity of potential medicinal agents and other toxic materials, since those agents would result in cell toxicity and therefore metabolic dysfunction and therefore decreased performance in the assay. The cytotoxity concentrations of the CH-205 compounds measured in MTT test are all over 20 μM (Table 2), however, their effects on angiogenesis inhibition are in nM range, indicating the safety of these compounds (Table 3)."}, "[2]": {"assay": "MTT cell viability of endothelial cells (ECs)", "format": "cell-based, human", "conditions": "human, Eahy926 endothelial-like cells, column head prints none, read-out: Cell viability IC50 (cytotoxicity concentration on ECs)", "method": "as §1, §2"}, "[3]": {"system": "HT-29", "assay": "Alamar blue cytotoxicity assay on HT-29 cancer cells", "format": "cell-based", "conditions": "Homo sapiens, HT-29; alamar blue, 48 hours treatment", "method": "as §1\n(§3) The alamar blue (AB) assay (dye purchased from Biosource International, Nivelles, Belgium) was used to estimate cell viability in accordance with procedures previously described by Fatokun et al (Bone (2006) 39, 542-551). Briefly, cells were treated with various concentration of each of the test compounds (e.g., compounds of example 1.1) at 37° C. for 48 hours, and the medium in each well was then aspirated at the end of the treatment, 100 μL of fresh medium containing 10% v/v AB was then added to the control and the treated wells, respectively. Plates were then incubated at 37° C. for 6 hour prior to measuring the absorbance at 570 nm and at 600 nm wavelengths using a spectrophotometric plate reader (DYNEX Technologies, USA). Experimental data were normalized to control values. CH-205-A, K, L, O, and -P were effective on MCF-7 cells; CH-205-A, H, K, L, O, and -P were effective on H460 cells; CH-205-A and -P were effective on HT-29 cells and CH-205-A, H, N, and -O were effective on CEM cells."}, "[4]": {"system": "endothelial cells (ECs)", "assay": "In vitro antiangiogenesis on ECs (inhibition of endothelial cell growth)", "format": "cell-based", "conditions": "Homo sapiens, ECs, read-out: In vitro antiangiogenesis IC50", "method": "as §1, §2"}, "[5]": {"system": "MCF-7", "assay": "Alamar blue cytotoxicity assay on MCF-7 cancer cells", "format": "cell-based", "conditions": "for IC50: Homo sapiens, MCF7, alamar blue, 48 hours treatment", "method": "as §1, §3"}, "[6]": {"system": "H460", "assay": "Alamar blue cytotoxicity assay on H460 cancer cells", "format": "cell-based, human", "conditions": "for IC50: Homo sapiens, NCI-H460, alamar blue, 48 hours treatment", "method": "as §1, §3"}, "[7]": {"system": "CEM", "assay": "Alamar blue cytotoxicity assay on CEM cancer cells", "format": "cell-based", "conditions": "for IC50: Homo sapiens, CCRF-CEM, alamar blue, 48 hours treatment", "method": "as §1, §3"}, "[8]": {"system": "H460 human lung cancer tumor xenograft", "conditions": "for tumor volume after sacrifice / Tumor growth inhibition ratio (TGI): CH-205-O study, 10 times; for tumor volume after sacrifice: solvent control 3.984±0.484", "quoted_text": "The established, transplantable, 5×10^6/200 μL H460 tumor cells were prepared in RPMI medium. The 200 μL of cell suspension was injected subcutaneously into right flank area of each mouse. The mice were randomized into vehicle control and drug treatment groups of four-six animals each when xenografts were palpable with a tumor size of 40 mm^3. Adminitration of the lead compounds or vehicle began on day 15 when the median tumor size was ranged from 75 to 80 mm^3. Tumor-bearing animals were randomized (five per group) prior to treatment. The candidate test drugs were intraperitoneal (IP) administered into with optimal dosage once every other day (48 hr apart) for 7 or 10 times. […] Solvent vehicle and cisplatin (5 mg/kg) were used to administrate, respectively, as io negative and positive controls. Two days after last administration of tested compounds, the animals were sacrificed. The tumor dimensions were measured every other day using a linear caliper and tumor volume is calculated using the equation V (mm^3)=a×b^2/2, where a is the largest diameter and b is the smallest diameter. Body weights are also recorded once weekly. Tumor is growth inhibition ratio (TGI) is calculated using the equation TGI=(1−(the mean treated tumor mass/mean control tumor mass))*100%."}},
  "note": "Read-outs that look alike come from different tables or passages of the source.",
  "data": [
    {"smiles": "Cc1c(Cl)c(O)cc(O)c1C(=O)OCC1=C[C@@H]2CC(C)(C)C[C@@H]2[C@@]2(C)C[C@@H](O)[C@@]12O", "note": "[CH-205-H, (((2R,2aS,4aS,7aS,7bR)-2,2a,4a,5,6,7,7a,7b-octahydro-2,2a-dihydroxy-6,6,7 b-trimethyl-1H-cyclobuta[e]inden-3-yl)methyl 3-chloro-4,6-dihydroxy-2-methylbenzoate)]", "values": [
      {"measurement": "Cell viability (% of control) 1 μM", "setting": "[1]", "value": "99.7 % of control"},
      {"measurement": "Cell viability (% of control) 10 μM", "setting": "[1]", "value": "128.7 % of control"},
      {"measurement": "Cell viability (% of control) 50 μM", "setting": "[1]", "value": "34.9 % of control"},
      {"measurement": "Cell viability (% of control) 100 μM", "setting": "[1]", "value": "12.7 % of control"},
      {"measurement": "Cell viability (% of control) 250 μM", "setting": "[1]", "value": "8.4 % of control"},
      {"measurement": "Cell viability (% of control) 500 μM", "setting": "[1]", "value": "7.0 % of control"},
      {"measurement": "IC50", "setting": "[2]", "value": 29.3, "unit": "µM"},
      {"measurement": "IC50", "setting": "[3]", "value": 7.1, "unit": "µM"},
      {"measurement": "IC50", "setting": "[4]", "value": 0.0013, "unit": "µM"},
      {"measurement": "IC50", "setting": "[5]", "value": 56.5, "unit": "µM"},
      {"measurement": "IC50", "setting": "[6]", "value": 5.5, "unit": "µM"},
      {"measurement": "melting point", "value": "148 to 149", "unit": "°C"},
      {"measurement": "IC50", "setting": "[7]", "value": 5.4, "unit": "µM"}
    ]},
    {"smiles": "COc1cc(O)c(C(=O)O[C@@H]2C[C@]3(C)C4CC(C)(C)CC4C=C(C=O)[C@]23O)c(C)c1Cl", "note": "(stereo partly drawn) [CH-205-O, (2R,2aS,7bR)-3-formyl-2,2a,4a,5,6,7,7a,7b-octahydro-2a-hydroxy-6,6,7b-trimethyl-1 H-cyclobuta[e]inden-2-yl 3-chloro-6-hydroxy-4-methoxy-2-methylbenzoate]", "values": [
      {"measurement": "Cell viability (% of control) 1 μM", "setting": "[1]", "value": "98.5 % of control"},
      {"measurement": "Cell viability (% of control) 10 μM", "setting": "[1]", "value": "43.6 % of control"},
      {"measurement": "Cell viability (% of control) 50 μM", "setting": "[1]", "value": "7.0 % of control"},
      {"measurement": "Cell viability (% of control) 100 μM", "setting": "[1]", "value": "6.5 % of control"},
      {"measurement": "Cell viability (% of control) 250 μM", "setting": "[1]", "value": "7.1 % of control"},
      {"measurement": "Cell viability (% of control) 500 μM", "setting": "[1]", "value": "7.0 % of control"},
      {"measurement": "IC50", "setting": "[2]", "value": 13.2, "unit": "µM"},
      {"measurement": "IC50", "setting": "[3]", "value": 42.1, "unit": "µM"},
      {"measurement": "IC50", "setting": "[4]", "value": 0.0021, "unit": "µM"},
      {"measurement": "tumor volume after sacrifice", "setting": "[8]; 4 mg/kg IP every other day", "value": "1.475±0.155", "unit": "cm^3"},
      {"measurement": "Tumor growth inhibition ratio (TGI)", "setting": "[8]; 4 mg/kg IP", "value": 60.87, "unit": "%"},
      {"measurement": "tumor volume after sacrifice", "setting": "[8]; 40 mg/kg IP every other day", "value": "1.470±0.177", "unit": "cm^3"},
      {"measurement": "Tumor growth inhibition ratio (TGI)", "setting": "[8]; 40 mg/kg IP", "value": 70.7, "unit": "%"},
      {"measurement": "tumor volume after sacrifice", "setting": "[8]; 80 mg/kg IP every other day", "value": "1.645±0.206", "unit": "cm^3"},
      {"measurement": "Tumor growth inhibition ratio (TGI)", "setting": "[8]; 80 mg/kg IP", "value": 62.9, "unit": "%"},
      {"measurement": "tumor regression", "setting": "[8]; CH-205-O study, 4, 40 and 80 mg/kg each other day, after 10 injections", "value": "highly significant tumor regression"},
      {"measurement": "effect on body weight", "setting": "[8]; mouse, in vivo", "value": "no different effect on body weight"},
      {"measurement": "effective on MCF-7 cells", "setting": "[5]", "value": "effective"},
      {"measurement": "IC50", "setting": "[5]", "value": 1.7, "unit": "µM"},
      {"measurement": "effective on H460 cells", "setting": "[6]", "value": "effective"},
      {"measurement": "IC50", "setting": "[6]", "value": 4.5, "unit": "µM"},
      {"measurement": "effective on CEM cells", "setting": "[7]", "value": "effective"},
      {"measurement": "IC50", "setting": "[7]", "value": 5.1, "unit": "µM"}
    ]}
  ]
}
